Columns and labels:
[1] = biological target: T1, Mushroom tyrosinase (Agaricus bisporus, UniProt O42713+Q00024+C7FF04+C7FF05); test: Inhibition of mushroom tyrosinase using L-Dopa as substrate […]
[2] = biological target: T1, Mushroom tyrosinase; test: Inhibition of mushroom tyrosinase using L-Dopa as substrate preincubated for 10 mins followed by substrate addition and measured after 20 mins
[3] = biological target: T1, Mushroom tyrosinase; test: Inhibition of mushroom tyrosinase

| IC50 [2] | SMILES | other results |
| --- | --- | --- |
|  | O=C(Nc1cccc(Cl)c1)Nc1ccc2c(c1)S(=O)(=O)NC2=O | IC50 [1]: 5.85 µM |
| 0.23 µM | O=c1c(O)c(-c2ccc(O)cc2)oc2ccccc12 |  |
|  | COc1ccc(/C=C2\NC(=S)NC2=O)c(OC)c1 | IC50 [1]: 1.07 µM |
| 0.093 µg/mL | COc1ccc(-c2oc3cc(Br)cc(Br)c3c(=O)c2O)cc1OC |  |
| 0.57 µg/mL | CN(C)c1ccc(-c2cc(=O)c3c(Br)cc(Br)cc3o2)cc1 |  |
| 0.71 µg/mL | O=c1c(O)c(-c2ccc(Cl)cc2)oc2cc(Br)cc(Br)c12 |  |
| 9.7 µg/mL | O=C(O)c1ccc(-c2cc(=O)c3c(Br)cc(Br)cc3o2)cc1 |  |
| 3.41 µg/mL | O=c1cc(-c2cccc3ccccc23)oc2cc(Br)cc(Br)c12 |  |
| 8.175 µg/mL | Cc1ccc(S(=O)(=O)n2cc(-c3oc4cc(Br)cc(Br)c4c(=O)c3O)c3ccccc32)cc1 |  |
| 4.26 µg/mL | O=C(O)c1ccc(-c2oc3cc(Br)cc(Br)c3c(=O)c2O)cc1 |  |
| 2.07 µg/mL | O=c1cc(-c2ccco2)oc2cc(Br)cc(Br)c12 |  |
| 2.5 µg/mL | O=c1c(O)c(-c2ccco2)oc2cc(Br)cc(Br)c12 |  |
| 11.33 µg/mL | Cc1ccc(-c2cc(=O)c3c(Br)cc(Br)cc3o2)c(C)c1 |  |
| 0.564 µg/mL | O=c1c(O)c(-c2cccc3ccccc23)oc2cc(Br)cc(Br)c12 |  |
|  | O=C(O)S[C@H]1N=N[C@@H](NC(=S)Nc2cccc(C(F)(F)F)c2)S1 | IC50 [1]: 6.13 µM |
| 20.5 µg/mL | O=c1cc(-c2ccc(F)cc2)oc2cc(Br)cc(Br)c12 |  |
| 0.49 µg/mL | COc1ccc(-c2cc(=O)c3c(Br)cc(Br)cc3o2)cc1OC |  |

| IC50 [2] | SMILES | other results |
| --- | --- | --- |
| 0.22 µg/mL | O=c1cc(-c2c[nH]c3ccccc23)oc2cc(Br)cc(Br)c12 |  |
| 3.01 µg/mL | O=c1c(O)c(-c2cccs2)oc2cc(Br)cc(Br)c12 |  |
| 22.22 µg/mL | Cc1ccc(S(=O)(=O)n2cc(-c3cc(=O)c4c(Br)cc(Br)cc4o3)c3ccccc32)cc1 |  |
|  | C=CCc1ccc(OC(=O)COC(=O)/C=C/c2ccc(O)cc2)c(OC)c1 | IC50 [3]: 3 µM |
|  | CCN1CCN(CC(=O)Nc2ccc3oc(-c4ccc(C(C)(C)C)cc4)nc3c2)CC1 | IC50 [1]: 8.14 µM |
| 4.2 µg/mL | O=c1cc(-c2ccc(Cl)cc2)oc2cc(Br)cc(Br)c12 |  |
| 0.5 µg/mL | CN(C)c1ccc(-c2oc3cc(Br)cc(Br)c3c(=O)c2O)cc1 |  |
| 7.2 µg/mL | Cc1ccc(-c2cc(=O)c3c(Br)cc(Br)cc3o2)cc1 |  |
| 2.36 µg/mL | O=c1c(O)c(-c2ccc(F)cc2)oc2cc(Br)cc(Br)c12 |  |
| 7.57 µg/mL | Cc1ccc(-c2oc3cc(Br)cc(Br)c3c(=O)c2O)c(C)c1 |  |
| 0.68 µg/mL | O=c1cc(-c2cccs2)oc2cc(Br)cc(Br)c12 |  |
| 0.27 µg/mL | O=c1cc(-c2ccc([N+](=O)[O-])cc2)oc2cc(Br)cc(Br)c12 |  |
| 3.28 µg/mL | O=c1cc(-c2cccc([N+](=O)[O-])c2)oc2cc(Br)cc(Br)c12 |  |
| 0.27 µg/mL | O=c1c(O)c(-c2ccc([N+](=O)[O-])cc2)oc2cc(Br)cc(Br)c12 |  |
| 0.126 µg/mL | Cc1ccc(-c2oc3cc(Br)cc(Br)c3c(=O)c2O)cc1 |  |
| 23.58 µg/mL | O=c1c(O)c(-c2c[nH]c3ccccc23)oc2cc(Br)cc(Br)c12 |  |
| 0.15 µg/mL | O=c1c(O)c(-c2cccc([N+](=O)[O-])c2)oc2cc(Br)cc(Br)c12 |  |
